Test results: patent publication US4772587A, “Dipeptide derivative of fatty acid” (Suntory Limited, priority 1985, dated 1988)
Residues, ends and D or L forms follow the SMILES beside them. *: point of attachment. Oleoyl = CCCCCCCC/C=C\CCCCCCCC(=O)*

Tests used:
[1] = Solubility in organic solvents; type: physicochemical
Excerpt: All the compouds in Table 1 are oils which are soluble in CCl4, ether, CHCl3, CH2 Cl2, AcOEt and MeOH.

prolyl endopeptidase = prolyl endopeptidase (Elizabethkingia meningoseptica, UniProt P27028); experiment: Measurement of anti-prolyl endopeptidase activity (decomposition of Z-glycyl-proline-β-naphthylamide); type: biochemical; conditions: substrate Z-glycyl-proline-β-naphthylamide, phosphate buffer pH 7.0
Description: The method of Yoshimoto and Tsuru (T. Yoshimoto and D. Tsuru, Agr. Biol. Chem. 42, 2417, 1978) was used to measure the anti-prolyl endopeptidase activities of several compounds of the present invention. A mixture of 0.0025M Z-glycyl-proline-β-naphthylamide (0.25 ml), 0.1M phosphate buffer (pH, 7.0; 0.99 ml) and a solution of a particular anti-prolyl endopeptidase compound (0.01 ml) was incubated in a test tube at 37° C. for 3 minutes. Thereafter, 0.1 ml of a solution of prolyl endopeptidase (0.2 U/ml) was added and the mixture was heated at 35° C. for 10 minutes. After the reaction, 2.0 ml of Triton X-100 in 1M acetate buffer (pH, 4.0) was added to the reaction mixture until the final concentration of the surfactant was 10%. The mixture was left at room temperature for 15 minutes and the absorbance (a) at 410 nm was measured.
A sample for blind test was prepared by using the buffer instead of the anti-prolyl endopeptidase compound and its absorbance (b) was also measured. The percent inhibition of prolyl endopeptidase was calculated by the formula: ((b-a)/b)×100, and the amount of a specific compound to achieve 50% inhibition (IC50) was determined.

[2] = system: experimental amnesia caused in rats by scopolamine; experiment: Preventive effect against experimental amnesia caused in rats by scopolamine (passive avoidance learning); type: in vivo, Wister male rats; conditions: for Avoidance time 24 hrs. later / Avoidance time 48 hrs. later / No. of amnesic rats/No. of rats tested / Percentage amnesia: scopolamine 3 mg/kg i.p. after learning
Description: Several of the anti-prolyl endopeptidase compounds of the present invention were checked for their ability to prevent the inhibition of long-term memory fixation by scopolamine. Solutions of physiological saline (0.3 ml) that contained selected compounds of the present inventions in varying amounts ([…], 0.25 mg, 0.1 mg, 0.025 mg and 0.010 mg/kg) were administered intraperitoneally once a day to Wister male rats (100-120 g). One hour after the administration, electric shocks (1.7 mA) were applied to the rats so that they would acquire passive avoidance learning. Immediately thereafter, scopolamine was administered intraperitoneally to each rat in an amount of 3 mg per kg of body weight.
The result of the test was assessed both 24 hours and 48 hours after the administration of scopolamine. The number of amnesic rats and of sound rats was counted for each of the control group (rats to which the test compounds had not been administered but to which only scopolamine and physiological saline had been administered intraperitoneally and the treated group (rats to which both the test compound and scopolamine had been administered). The results are shown in Table 3.

ddY strain male mice = experiment: Anti-hypoxia action (survival time in desiccator evacuated to 180 mmHg); type: in vivo; conditions: for No. of survival/used (Drug): 30 minutes before evacuation to 180 mmHg
Description: The compounds of the present invention were checked for their anti-hypoxia action in ddY strain male mice (body weight: 25-34 g). Each of the treated groups consisted of 7 to 10 mice. Test samples were prepared by adding 2 to 3 drops of Tween 80® to physiological saline and suspending the respective compounds in the saline. The so conditioned test samples were administered (0.1 m 10 g) to each of the mice used.
At 30 minutes after the administration, each of the mice was placed in a desiccator having a volume of 1 l, and the desiccator was evacuated to 180 mmHg using a vacuum pump. The period of time from the start of the evacuation until the arrest of breathing was defined as Survival Time (minute).
When a mouse survived for 15 minutes or more, the survival time was recorded as being 15 minutes. Student's t-test was employed for significance analysis.

[3] = system: experimental amnesia caused in rats by scopolamine; experiment: Preventive effect against experimental amnesia caused in rats by scopolamine (passive avoidance learning); type: in vivo, Wister male rats; conditions: for anti-amnesic action (in words): administered orally (so in the source) in an amount of 0.025 mg/kg
[4] = dose of 0.01 mg/kg (orally as printed)

prolyl endopeptidase, sequence (P27028 21-705): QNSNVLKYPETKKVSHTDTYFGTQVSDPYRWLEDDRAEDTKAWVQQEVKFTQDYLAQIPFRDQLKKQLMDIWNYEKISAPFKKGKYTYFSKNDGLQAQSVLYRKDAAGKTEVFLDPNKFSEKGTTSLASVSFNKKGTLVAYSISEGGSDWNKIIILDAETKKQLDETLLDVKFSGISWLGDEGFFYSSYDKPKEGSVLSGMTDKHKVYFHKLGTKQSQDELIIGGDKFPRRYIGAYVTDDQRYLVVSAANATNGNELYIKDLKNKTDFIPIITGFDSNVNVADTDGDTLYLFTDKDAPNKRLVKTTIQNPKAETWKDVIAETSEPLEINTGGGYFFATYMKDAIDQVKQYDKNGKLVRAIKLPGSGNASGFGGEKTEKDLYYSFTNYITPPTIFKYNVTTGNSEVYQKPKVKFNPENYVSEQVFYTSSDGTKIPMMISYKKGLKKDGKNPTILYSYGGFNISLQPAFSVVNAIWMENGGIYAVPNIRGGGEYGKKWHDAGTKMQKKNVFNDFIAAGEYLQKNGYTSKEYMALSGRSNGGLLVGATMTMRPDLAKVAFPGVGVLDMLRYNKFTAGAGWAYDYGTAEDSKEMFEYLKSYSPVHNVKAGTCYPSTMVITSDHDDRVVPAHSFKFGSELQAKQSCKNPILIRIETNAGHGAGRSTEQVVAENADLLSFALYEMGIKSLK

| SMILES | IC50 (amount of compound to achieve 50% inhibition) (prolyl endopeptidase) [ng/test tube] | Avoidance time 24 hrs. later ([2]; sample 25 μg/kg i.p.) [s] | Avoidance time 48 hrs. later ([2]; sample 25 μg/kg i.p.) [s] | No. of amnesic rats/No. of rats tested ([2]; sample 25 μg/kg i.p.) | Percentage amnesia ([2]; sample 25 μg/kg i.p.) [%] | anti-amnesic action (in words) [3] | anti-amnesic action (in words) [2, 4] | Avoidance time 24 hrs. later ([2]; sample 10 μg/kg i.p.) [s] | Avoidance time 48 hrs. later ([2]; sample 10 μg/kg i.p.) [s] | No. of amnesic rats/No. of rats tested ([2]; sample 10 μg/kg i.p.) | Percentage amnesia ([2]; sample 10 μg/kg i.p.) [%] | further results |
| --- | --- | --- | --- | --- | --- | --- | --- | --- | --- | --- | --- | --- |
| CCCCCCCC/C=C\CCCCCCCC(=O)NC(Cc1ccccc1)C(=O)N1CCCC1C(=O)OC (stereo not drawn) [SUAM 1194, oleoyl-Phe-Pro-OMe] (Oleoyl-Phe-Pro-OMe; configuration not given here) |  |  |  |  |  |  |  |  |  |  |  | solubility in benzene [1]: soluble in benzene |
| CCCCCCCC/C=C\CCCCCCCC(=O)N[C@@H](Cc1ccccc1)C(=O)N1CCC[C@H]1C=O [SUAM 1212, oleoyl-Phe-Pro-CHO] (Oleoyl-Phe-Pro-aldehyde) | 0.4 | 300 | 285 | 0/10 | 0 | strong anti-amnesic action |  |  |  |  |  | Survival time Ratio (Drug/Control) (ddY strain male mice; 1 mg/kg i.p.): 1.27; No. of survival/used (Drug) (ddY strain male mice; 1 mg/kg i.p.): 0/7; Survival time (Mean ± S.E.), Drug (ddY strain male mice; 1 mg/kg i.p., p < 0.05 vs control): 2.94 ± 0.27 mini; Survival time Ratio (Drug/Control) (ddY strain male mice; 10 mg/kg i.p.): 1.28; No. of survival/used (Drug) (ddY strain male mice; 10 mg/kg i.p.): 0/7; Survival time (Mean ± S.E.), Drug (ddY strain male mice; 10 mg/kg i.p., p < 0.1 vs control): 2.89 mini |
| CCCCCCCC/C=C\CCCCCCCC(=O)NC(CCSC)C(=O)N1CCCC1C=O (stereo not drawn) [SUAM 1214, oleoyl-Met-Pro-CHO] (Oleoyl-Met-Pro-aldehyde; configuration not given here) | 0.6 | 300 | 300 | 0/10 | 0 | considerably excellent anti-amnesic action | remarkable anti-amnesic action | 300 | 300 | 0/10 | 0 | anti-amnesic action (in words) ([2]; administered orally (so in the source) in an amount of 1 mg/kg): no remarkable effect; Avoidance time 24 hrs. later ([2]; sample 100 μg/kg i.p.): 300 s; Avoidance time 48 hrs. later ([2]; sample 100 μg/kg i.p.): 276.4 s; No. of amnesic rats/No. of rats tested ([2]; sample 100 μg/kg i.p.): 1/10; Percentage amnesia ([2]; sample 100 μg/kg i.p.): 10%; Avoidance time 24 hrs. later ([2]; sample 250 μg/kg i.p.): 240.6 s; Avoidance time 48 hrs. later ([2]; sample 250 μg/kg i.p.): 226.0 s; No. of amnesic rats/No. of rats tested ([2]; sample 250 μg/kg i.p.): 2/10; Percentage amnesia ([2]; sample 250 μg/kg i.p.): 20%; Avoidance time 24 hrs. later ([2]; sample 1 mg/kg i.p.): 73.0 s; No. of amnesic rats/No. of rats tested ([2]; sample 1 mg/kg i.p.): 6/10; Percentage amnesia ([2]; sample 1 mg/kg i.p.): 60%; Avoidance time 48 hrs. later ([3]; sample 1 mg/kg i.p., scopolamine 3 mg/kg i.p. after learning): 103.0 s |
| CCCCCCCC/C=C\CCCCCCCC(=O)N1CCCC1C(=O)N1CCCC1C=O (stereo not drawn) [SUAM 1215, Oleoyl-Pro-Pro-CHO] (Oleoyl-Pro-Pro-aldehyde; configuration not given here) | 0.3 | 300 | 300 | 0/10 | 0 | strong anti-amnesic action | strong anti-amnesic action | 300 | 300 | 0/10 | 0 |  |
